Results published in article PMC4015405, “Specificity of the Receptor for the Major Sex Pheromone Component in Heliothis virescens” (Journal of Insect Science, 2013).

Target: T1, Or67d (Or67d^+[1]) (Drosophila melanogaster, UniProt Q9VT92)
T1 construct: native full-length receptor in trichoid T1 sensilla of living flies; with Odorant receptor coreceptor
T1 sequence (Q9VT92 1-391): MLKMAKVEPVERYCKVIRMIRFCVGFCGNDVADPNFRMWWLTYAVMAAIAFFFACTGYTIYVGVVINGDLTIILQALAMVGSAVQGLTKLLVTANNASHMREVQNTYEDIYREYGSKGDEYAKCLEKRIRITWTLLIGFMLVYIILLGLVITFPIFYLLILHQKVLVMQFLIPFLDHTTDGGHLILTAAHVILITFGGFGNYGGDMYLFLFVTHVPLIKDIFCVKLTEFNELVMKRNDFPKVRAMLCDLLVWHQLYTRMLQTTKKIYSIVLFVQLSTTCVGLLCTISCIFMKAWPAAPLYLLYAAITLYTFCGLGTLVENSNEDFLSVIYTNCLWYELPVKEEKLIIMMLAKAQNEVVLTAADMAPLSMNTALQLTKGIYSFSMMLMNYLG
T1 sequence (Q9VNB5 1-486 partner): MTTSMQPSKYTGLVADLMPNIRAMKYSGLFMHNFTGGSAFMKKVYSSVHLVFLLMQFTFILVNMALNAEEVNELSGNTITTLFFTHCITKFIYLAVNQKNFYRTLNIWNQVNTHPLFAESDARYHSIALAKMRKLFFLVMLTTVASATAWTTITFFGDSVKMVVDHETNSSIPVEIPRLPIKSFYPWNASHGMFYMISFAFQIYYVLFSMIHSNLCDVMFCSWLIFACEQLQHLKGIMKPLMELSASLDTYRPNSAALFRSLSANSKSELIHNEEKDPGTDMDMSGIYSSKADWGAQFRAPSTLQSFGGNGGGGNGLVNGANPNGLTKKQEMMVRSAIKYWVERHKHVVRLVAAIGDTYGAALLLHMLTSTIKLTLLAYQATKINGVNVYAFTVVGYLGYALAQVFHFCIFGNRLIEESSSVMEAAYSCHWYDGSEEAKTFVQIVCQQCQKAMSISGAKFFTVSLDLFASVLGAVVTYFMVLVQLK
Experiment: single sensillum recording, Drosophila T1 trichoid sensilla
Format: cell-based
Settings: 10 μg source dose on filter paper; agonist; n = 7

- spikes/sec: 87 ± 15.87 spikes/sec
SMILES: CCCC/C=C\CCCCCCCCCCOC(C)=O [Z11-16:OAc, (Z)-11-hexadecenyl acetate]
